In patent publication US20020182232A9, “Cosmetic composition comprising at least one ingredient chosen from compounds of formula (I) and salts thereof, use thereof as colouring agent, and novel compounds of formulae (IIa), (IIIa), (IVa), (Va), and (VIa), and salts thereof” (priority 2000, published 2002):

Key:
[1] = Bleeding: ability to dissolve in a dispersion medium (optical density of supernatant); type: physicochemical; conditions: supernatant absorbance 400 to 800 nm, bleeds when O.D. >1.5; for Bleeding in water, O.D.: 1% by weight compound in water + 1% Polysorbate 20; for Bleeding in oil (triglycerides), O.D.: 1% by weight compound in caprylic/capric acid triglycerides
Description: 3/Bleeding: Ability to Dissolve in a Dispersion Medium
A dispersion was prepared comprising 1% by weight of test compound in an oil (caprylic/capric acid triglycerides).
A dispersion was also prepared comprising 1% by weight of test compound in a mixture of water and 1% by weight of wetting agent (Polysorbate 20).
The mixture was stirred for 10 minutes using a magnetic bar. 10 g of dispersion were weighed out and placed in centrifuge tubes. This material was centrifuged for 30 minutes at 3000 rpm.
The supernatant liquid was taken up and the optical density was determined by measuring the absorbence on a spectrophotometer from 400 to 800 nm, at a speed of 240 nm/min.
The compound was considered to bleed when the optical density was greater than 1.5.

[2] = Photochemical stability (SUNTEST CPS, colour difference before/after); type: physicochemical; conditions: compacted pure compound, SUNTEST CPS one hour, 765 watts/m^2; UV-unstable when ΔE >6
Description: 4/Photochemical Stability
The UV stability was carried out by leaving the compacted pure test compound (100 bar, FAP crucible) in the SUNTEST CPS for one hour. The SUNTEST CPS is an apparatus sold by Heraeus. […] The apparatus was used at 765 watts/m^2 and emits UVA, UVB, and visible light over a range of 300 to 800 nm.
The difference in colour ΔE before and after the SUNTEST was measured by colorimetry.
The compound was considered as UV-unstable when the ΔE was >6.

Bleeding in water, O.D. [1]	Photochemical stability ΔE [2]	Bleeding in oil (triglycerides), O.D. [1]	melting point [°C]	Structure (SMILES)
O.D. = 0.23	ΔE = 1.32			O=C1c2ccccc2C(=O)c2c1oc1c2ccc2ccc(O)cc21 [2-Hydroxy-dinaphtho(1,2-b:2′,3′-d)furan-7,12-dione]
O.D. = 0.30	ΔE = 0.28			COc1ccc2ccc3oc4c(c3c2c1)C(=O)c1ccccc1C4=O [2-methoxydinaphtho-(2,1-b:2′,3′-d)furan-8,13-dione]
O.D. = 0.03	ΔE = 2.61	O.D. = 0.92		O=C1c2ccccc2C(=O)c2c1oc1ccc3cc(Br)ccc3c21 [3-bromodinaphtho(2,1-b:-2′,3′-d)furan-8,13-dione]
O.D. = 0.04	ΔE = 0.81	O.D. = 0.88	292.1	COc1ccc2c(ccc3oc4c(c32)C(=O)c2ccccc2C4=O)c1 [3-methoxydinaphtho-(2,1-b:2′,3′-d)furan-8,13-dione]
O.D. = 0.02	ΔE = 1.36			O=C1c2ccccc2C(=O)c2c1oc1c2cc(Cl)c2ccccc21 [5-chlorodinaphtho-(1,2-b:2′,3′-d)furan-7,12-dione]
O.D. = 0.27	ΔE = 0.24			CCOc1cc2c3c(oc2c2ccccc12)C(=O)c1ccccc1C3=O [5-ethoxydinaphtho(1,2-b:2′,3′-d)furan-7,12-dione]
O.D. = 0.29	ΔE = 0.91		173.9	CCCCCCOc1cc2c3c(oc2c2ccccc12)C(=O)c1ccccc1C3=O [5-hexyloxydinaphtho-(1,2-b:2′,3′-d)furan-7,12-dione]
O.D. = 0.16	ΔE = 0.10			O=C1c2ccccc2C(=O)c2c1oc1cc(O)c3ccccc3c21 [5-hydroxydinaphtho(2,1-b:2′,3′-d)furan-8,13-dione]
O.D. = 0.03	ΔE = 0.81			CC(C)Oc1cc2c3c(oc2c2ccccc12)C(=O)c1ccccc1C3=O [5-isopropyloxydinaphtho-(1,2-b:2′,3′-d)furan-7,12-dione]
O.D. = 0.13	ΔE = 3.91			O=C1c2ccccc2C(=O)c2c1oc1c2ccc2ccccc21 [Dinaphtho(1,2-b:2′,3′-d)furan-7,12-dione, dinaphtho(1,2-b:2′,3′-d)furan-7,12-dione]
O.D. = 0.01	ΔE = 0.23			O=C1c2ccccc2C(=O)c2c1oc1ccc3ccccc3c21 [Dinaphtho(2,1-b:2′,3′-d)furan-8,13-dione, dinaphtho(2,1-b:2′,3′-d)furan-8,13-dione]
O.D. = 0.08	ΔE = 6.63			O=C(O)c1nn(-c2ccc(S(=O)(=O)O)cc2)c(O)c1N=Nc1ccc(S(=O)(=O)O)cc1 [FD&C Yellow No. 5, reference compound]
O.D. = 0.58	ΔE = 10.06			O=S(=O)([O-])c1ccc(N=Nc2c(O)ccc3cc(S(=O)(=O)[O-])ccc23)cc1.[Na+].[Na+] [FD&C Yellow No. 6, reference compound]
